# Results taken from patent US20230263762A1, “COMPOSITION AND METHOD FOR TREATING INFECTIONS” (priority 2020, published 2023).
# How the values were obtained:
# [1] = test system: SARS-CoV-2 (USA-WA1/2020 strain); test: Direct injection into viral suspension, plaque assay on Vero E6 cells; type: cell-based; conditions: for reduction of viral burden by individual components: 1.4 and 3.9 µls propionic acid, 0.6 and 1.1 µls isoamyl hexanoates; for decline in viral burden: 360 mins post-addition
# SARS-CoV-2 = test: Direct injection of Sx mixture or its components into virus suspension, Vero E6 plaque assay; type: cell-based; conditions: for activity of the component alone: direct injection (FIGS. 20 and 21)
# [2] = target: RBD of the SARS-CoV-2 spike protein to ACE2 (Severe acute respiratory syndrome coronavirus 2, UniProt P0DTC2); conditions: cited from earlier work
# [3] = propionic acid alone, direct injection
compound,measurement,setting,value
CCC(=O)O [propionic acid],reduction of viral burden by individual components,[1],minimal reduction of viral burden
same,decline in viral burden,[1]; 1.4 µls alone,0.29 log10 PFU/ml
same,decline in viral burden,[1]; 3.9 µls alone,0.98 log10 PFU/ml
same,time to undetectable levels of virus,"[1]; 7.7 µl alone, direct injection",240 min
same,time to undetectable viral burden,"[1]; 15.4 µls alone, direct injection",15 min
same,EC50 volume over the entire study,"[1]; direct injection, entire 360 min study (AUC of viral burden-time), 37° C.",6.2 µls
same,reduction in activity of the virus,SARS-CoV-2; acid alone at 3.9 µL,about 0.5 log
same,activity of the component alone,SARS-CoV-2,only has marginal biological activity
same,time to complete inactivation of the virus,SARS-CoV-2; propionic acid alone at 7.7 µL,220 min
same,volume of acid necessary for relative immediate inactivation of the virus,SARS-CoV-2; [3],at least 15.4 µL
same,volume of acid necessary to get any appreciable activity,SARS-CoV-2; [3],up to 7.7 µL
isoamyl hexanoates,reduction of viral burden by individual components,[1],minimal reduction of viral burden
same,"suppression of SARS-CoV-2 replication, component alone","[1]; direct injection, all treatment arms (FIG. 7B)",substantially less effective
same,activity of the component alone,SARS-CoV-2,no lasting activity
same,reduction in activity of the virus,"SARS-CoV-2; esters alone (1.1 µL), at about 100 min",~1 log
same,reduction in virus activity,"SARS-CoV-2; esters alone, highest concentration of 4.6 µL, over 300 minutes",1 order of magnitude
same,general reduction in virus activity,"SARS-CoV-2; esters alone, within about 30 min, over the range of concentrations tested",~1 log
GluGluLeuGlu,reduction of the binding affinity of RBD to ACE2,[2]; addition of peptide to SARS-CoV-2,34%
same,reduction of virus activity,[2]; peptide added to the virus,34%
